Test results taken from paper PMC7573564, “The Sensing Liver: Localization and Ligands for Hepatic Murine Olfactory and Taste Receptors” (Frontiers in Physiology, 2020).
“Also recorded” adds a separate entry of the source. Each block holds one compound with its values, some of them ahead of it.

Legend:
Olfr177 = Olfr177 (Mus musculus, UniProt E9Q7W1); assay: cAMP-dependent dual luciferase reporter assay, Olfr177 expressed in HEK293T cells; type: cell-based; conditions: for Olfr177 activation (cAMP response, Firefly:Renilla), in words: HEK293T cells expressing Olfr177; for EC50: HEK293T cells expressing Olfr177, Firefly:Renilla ratio, 4 h, dose response of at least 6 concentrations, read-out: EC50 for activation of Olfr177
Source text: (§1) For ORs whose trafficking conditions could be established as described above, an unbiased ligand screen using a dual-luciferase reporter assay (Promega) was used to identify potential ligands. Briefly, ORs were transiently transfected (Lipofectamine 2000, Invitrogen) in triplicate into HEK293T cells along with constructs encoding for CREB-dependent luciferase (Firefly) and a constitutively expressed luciferase (Renilla), along with any accessory proteins previously established to be required for effective cell-surface trafficking. Additional surface labeling experiments were performed with the Firefly and Renilla constructs to ensure effective trafficking was not lost under these transfection conditions. OR activation leads to a rise in cAMP which drives an increase in Firefly luciferase expression. Firefly activity is normalized to the activity of the Renilla luciferase to control for variation in cell number and transfection efficiency. Data were collected using a FLUOstar Omega automated plate reader (BMG LabTech, Cary, NC, United States). Cells were allowed to incubate for at least 30 min in CD293 minimal media, and were then bathed with potential odorants diluted in minimal media for 4 h before measuring Firefly and Renilla-derived luminescence. Initially, screening was performed using odorant mixes that are grouped mainly by functional groups (BzB: nonanal, heptanal, valeraldehyde; BzC: carvone, eugenol, cinnamaldehyde; MA: amyl acetate, 3-octanone, acetophenone; OXLK: 2,3-butanedione, pyruvaldehyde, acetic acid, 1,2-ethanedithiol, 2-butanone; THI-DI: 1,6-hexanedithiol, 1,2-ethanedithiol, 2-methyl-1-propanethiol, 1,2-butanedithiol, 2,3-butanedithiol). These mixtures are known to elicit activation of a large number of olfactory sensory neurons and thus cover a wide range of ‘odorant space’ ([Pluznick et al., 2013]), followed by any known ligands to ORs in the same family as those being tested, as well as physiologically relevant substances. A complete list of chemicals used for screening is found in Supplementary Table 1 and all chemicals tested were obtained from Sigma or Fisher Scientific. To begin, all compounds screened were tested at a minimum of two concentrations (100–300 μm and 1–5 mM) to cover a wide range of potential activation. For each assay, Olfr78 or Olfr1393 and known activators of these receptors (Propionate and Cycloheptanol, respectively) were used as positive controls. In order to determine specific activation, potential activators of one receptor were also tested on at least one other OR simultaneously. Negative controls were performed with both media, and media containing DMSO. […] A significant rise in Firefly:Renilla over baseline was determined by multiple T-Tests ([…] deemed significant).

Olfr57 = Olfr57 (Mus musculus, UniProt Q8VGU7); assay: cAMP-dependent dual luciferase reporter assay, Olfr57 expressed in HEK293T cells; type: cell-based; conditions: for Olfr57 activation (cAMP-mediated response), in words: HEK293T cells expressing Olfr57; for EC50: HEK293T cells expressing Olfr57, Firefly:Renilla ratio, 4 h, dose response of at least 6 concentrations, read-out: EC50 for activation of Olfr57
Source text: as §1

OR5K1 = system: OR5K1; set-up: method as in Wilkin Françoise et al., 2015; conditions: ref Wilkin Françoise et al., 2015; cited from earlier work
phosphodiesterase = system: phosphodiesterase; set-up: method as in Parra, 2012; conditions: ref Parra, 2012; cited from earlier work
heme oxygenase = system: heme oxygenase; set-up: method as in Parra, 2012; conditions: hepatocellular carcinoma line (HepG2); ref Parra, 2012; cited from earlier work
[1] = system: Olfr16 and its human homolog, OR10J5; set-up: method as in von der Weid et al., 2015; Tong et al., 2017; conditions: ref von der Weid et al., 2015; Tong et al., 2017; cited from earlier work
Candida albicans = system: Candida albicans; set-up: method as in Manoharan et al., 2017; conditions: ref Manoharan et al., 2017; cited from earlier work
CYP2A6 = system: CYP2A6; set-up: method as in Gyoubu and Miyazawa, 2007; Miyazawa and Gyoubu, 2007; conditions: ref Gyoubu and Miyazawa, 2007; cited from earlier work
[2] = system: Olfr78 and its human homolog, OR51E2; set-up: method as in Pluznick et al., 2013; conditions: ref Pluznick et al., 2013; cited from earlier work
MOR139-1 = system: MOR139-1; set-up: method as in Hiroaki Matsunami, 2010; conditions: ref Hiroaki Matsunami, 2010; cited from earlier work
Olfr544 = system: Olfr544; set-up: method as in Abaffy et al., 2007; Kang et al., 2015; Thach et al., 2017; conditions: ref Abaffy et al., 2007; Kang et al., 2015; Thach et al., 2017; cited from earlier work

Chain of Olfr177 (E9Q7W1 entry or part of it): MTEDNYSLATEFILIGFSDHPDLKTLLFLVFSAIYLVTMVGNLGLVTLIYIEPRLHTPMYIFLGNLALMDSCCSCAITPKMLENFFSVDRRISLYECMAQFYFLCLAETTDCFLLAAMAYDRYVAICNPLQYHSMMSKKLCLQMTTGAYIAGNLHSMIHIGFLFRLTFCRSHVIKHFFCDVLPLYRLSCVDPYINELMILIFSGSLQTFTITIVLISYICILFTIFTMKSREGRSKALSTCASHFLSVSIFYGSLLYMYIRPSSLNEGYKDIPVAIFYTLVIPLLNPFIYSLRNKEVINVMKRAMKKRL
Chain of Olfr57 (Q8VGU7 entry or part of it): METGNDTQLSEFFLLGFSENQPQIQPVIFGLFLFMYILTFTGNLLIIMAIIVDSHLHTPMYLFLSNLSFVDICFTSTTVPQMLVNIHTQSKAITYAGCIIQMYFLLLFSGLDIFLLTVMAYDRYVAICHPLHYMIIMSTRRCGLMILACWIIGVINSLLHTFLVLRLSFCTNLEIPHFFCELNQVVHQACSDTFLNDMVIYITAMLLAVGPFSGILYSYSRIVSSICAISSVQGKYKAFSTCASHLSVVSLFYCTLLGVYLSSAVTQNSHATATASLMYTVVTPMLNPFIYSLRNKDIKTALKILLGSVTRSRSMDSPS

Compound: c1cnccn1 [pyrazine]
Olfr177 activation (cAMP response, Firefly:Renilla), in words (Olfr177): did not elicit OR activation

Compound: CC1(C)C2CCC1(CS(=O)(=O)O)C(=O)C2 (centres unmarked) [camphorsulfonic acid]
Olfr57 activation (cAMP-mediated response), in words (Olfr57): did not elicit a cAMP-mediated response; also recorded: non-activators

Compound: O=C1CC2CC[C@H]1C2 [norcamphor]
Olfr57 activation (cAMP-mediated response), in words (Olfr57): did not elicit a cAMP-mediated response; also recorded: non-activators

EC50 (Olfr57): 234 µM
Compound: CC12CCC(CC1)C(C)(C)O2 [eucalyptol]

Olfr177 activation (cAMP response, Firefly:Renilla), in words (Olfr177): significant increase | EC50 (Olfr177): 1070 µM
Compound: CCc1ncc(C)nc1C [2-ethyl-3,5-dimethylpyrazine]
Activation of OR5K1 (OR5K1): activated | phosphodiesterase activity (phosphodiesterase): inhibit | heme oxygenase activity (heme oxygenase): induced

Compound: CC1=CC[C@@]23CC1C(C)(C)[C@@H]2CC[C@H]3C [α-cedrene]
Activation of Olfr16 and OR10J5 [1]: activated

EC50 (Olfr177): 1670 µM
Compound: CCc1nccnc1C [2-ethyl-3-methylpyrazine]

EC50 (Olfr57): 45 µM
Compound: CC12CCC(C1)C(C)(C)C2O (centres unmarked) [fenchyl alcohol]
antibiofilm and antihyphal properties (Candida albicans): antibiofilm and antihyphal properties

Compound: CC(C)[C@]12CC(=O)[C@H](C)[C@H]1C2 [thujone]
Olfr57 activation (cAMP-mediated response), in words (Olfr57): did not elicit a cAMP-mediated response; also recorded: non-activators

Compound: CC12CCC(C1)C(C)(C)C2=O [(1R)-(-)-fenchone]
EC50 (Olfr57): 94 µM | metabolized in the liver by microsomal enzyme CYP2A6 (CYP2A6): metabolized | antibiofilm and antihyphal properties (Candida albicans): antibiofilm and antihyphal properties

Compound: C=C1CCC2CC1C2(C)C (centres unmarked) [pinene]
Olfr57 activation (cAMP-mediated response), in words (Olfr57): did not elicit a cAMP-mediated response; also recorded: non-activators

Compound: CC(=O)/C=C/C1=C(C)CCCC1(C)C [β-ionone]
Response of Olfr78 and OR51E2 [2]: respond

Olfr177 activation (cAMP response, Firefly:Renilla), in words (Olfr177): failed to plateau
Compound: Cc1cnc(C)c(C)n1 [2,3,5-trimethylpyrazine]

Compound: C=C1C2CCC(C2)C1(C)C (centres unmarked) [camphene]
Olfr57 activation (cAMP-mediated response), in words (Olfr57): did not elicit a cAMP-mediated response; also recorded: non-activators

Compound: CC(C)(O)CCCC1=CCC(C=O)CC1 (centres unmarked) [lyral]
Activation of Olfr16 and OR10J5 [1]: activated

Compound: (1R)-(+)-camphor
Olfr57 activation (cAMP-mediated response), in words (Olfr57): weakly activate | Response of MOR139-1 (MOR139-1): respond | antibiofilm and antihyphal properties (Candida albicans): antibiofilm and antihyphal properties

Compound: O=C(O)CCCCCCCC(=O)O [azelaic acid]
Activation of Olfr544 (Olfr544): activated

Compound: CC1(C)C2CCC1(C)C(O)C2 (centres unmarked) [borneol]
EC50 (Olfr57): 240 µM | antibiofilm and antihyphal properties (Candida albicans): antibiofilm and antihyphal properties

Compound: CC(=O)c1ccccc1 [Acetophenone]
Activation of Olfr16 and OR10J5 [1]: activated
